Source: ChEMBL document CHEMBL1124450, “Identification of structural requirements for analogues of atrial natriuretic peptide (ANP) to discriminate between ANP receptor subtypes” (J Med Chem, 1989)
Residues, ends and D or L forms follow the SMILES beside them.

Assays:
[1] = target: T1, Atrial natriuretic peptide receptor (Homo sapiens, UniProt P20594+P16066+P17342); test: Inhibitory activity against guanylate cyclase coupled receptor binding site in rabbit lung by using [125I]-ANP-(103-126); assay type: protein assay, Oryctolagus cuniculus; details: target entry is the homologue from another species
T1 sequence (P20594 whole entry): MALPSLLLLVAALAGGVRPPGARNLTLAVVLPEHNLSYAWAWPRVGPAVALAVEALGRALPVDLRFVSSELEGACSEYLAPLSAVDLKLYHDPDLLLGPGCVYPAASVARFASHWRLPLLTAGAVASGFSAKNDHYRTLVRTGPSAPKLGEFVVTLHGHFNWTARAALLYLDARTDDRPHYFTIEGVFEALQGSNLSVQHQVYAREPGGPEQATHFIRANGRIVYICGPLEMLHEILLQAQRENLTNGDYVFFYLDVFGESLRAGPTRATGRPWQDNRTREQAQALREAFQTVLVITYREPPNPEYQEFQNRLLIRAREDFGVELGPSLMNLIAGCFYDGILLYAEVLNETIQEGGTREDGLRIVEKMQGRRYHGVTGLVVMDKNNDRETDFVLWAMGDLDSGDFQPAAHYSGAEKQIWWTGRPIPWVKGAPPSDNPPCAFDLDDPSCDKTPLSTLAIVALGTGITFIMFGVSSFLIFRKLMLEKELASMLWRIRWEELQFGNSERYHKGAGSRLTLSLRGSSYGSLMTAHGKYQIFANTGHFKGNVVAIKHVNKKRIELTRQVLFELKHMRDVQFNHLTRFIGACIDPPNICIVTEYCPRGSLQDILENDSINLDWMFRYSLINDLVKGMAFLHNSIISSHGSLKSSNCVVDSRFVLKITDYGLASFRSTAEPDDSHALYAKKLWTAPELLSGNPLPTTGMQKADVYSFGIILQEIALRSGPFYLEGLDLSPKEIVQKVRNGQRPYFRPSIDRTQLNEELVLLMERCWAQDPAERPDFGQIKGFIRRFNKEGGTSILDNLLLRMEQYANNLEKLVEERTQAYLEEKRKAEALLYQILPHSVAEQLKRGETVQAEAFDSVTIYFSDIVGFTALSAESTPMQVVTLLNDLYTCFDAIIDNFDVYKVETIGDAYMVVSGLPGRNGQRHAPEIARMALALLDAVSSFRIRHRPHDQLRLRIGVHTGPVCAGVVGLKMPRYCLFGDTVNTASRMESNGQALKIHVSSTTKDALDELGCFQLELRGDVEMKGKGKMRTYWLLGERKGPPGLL
T1 sequence (P16066 whole entry): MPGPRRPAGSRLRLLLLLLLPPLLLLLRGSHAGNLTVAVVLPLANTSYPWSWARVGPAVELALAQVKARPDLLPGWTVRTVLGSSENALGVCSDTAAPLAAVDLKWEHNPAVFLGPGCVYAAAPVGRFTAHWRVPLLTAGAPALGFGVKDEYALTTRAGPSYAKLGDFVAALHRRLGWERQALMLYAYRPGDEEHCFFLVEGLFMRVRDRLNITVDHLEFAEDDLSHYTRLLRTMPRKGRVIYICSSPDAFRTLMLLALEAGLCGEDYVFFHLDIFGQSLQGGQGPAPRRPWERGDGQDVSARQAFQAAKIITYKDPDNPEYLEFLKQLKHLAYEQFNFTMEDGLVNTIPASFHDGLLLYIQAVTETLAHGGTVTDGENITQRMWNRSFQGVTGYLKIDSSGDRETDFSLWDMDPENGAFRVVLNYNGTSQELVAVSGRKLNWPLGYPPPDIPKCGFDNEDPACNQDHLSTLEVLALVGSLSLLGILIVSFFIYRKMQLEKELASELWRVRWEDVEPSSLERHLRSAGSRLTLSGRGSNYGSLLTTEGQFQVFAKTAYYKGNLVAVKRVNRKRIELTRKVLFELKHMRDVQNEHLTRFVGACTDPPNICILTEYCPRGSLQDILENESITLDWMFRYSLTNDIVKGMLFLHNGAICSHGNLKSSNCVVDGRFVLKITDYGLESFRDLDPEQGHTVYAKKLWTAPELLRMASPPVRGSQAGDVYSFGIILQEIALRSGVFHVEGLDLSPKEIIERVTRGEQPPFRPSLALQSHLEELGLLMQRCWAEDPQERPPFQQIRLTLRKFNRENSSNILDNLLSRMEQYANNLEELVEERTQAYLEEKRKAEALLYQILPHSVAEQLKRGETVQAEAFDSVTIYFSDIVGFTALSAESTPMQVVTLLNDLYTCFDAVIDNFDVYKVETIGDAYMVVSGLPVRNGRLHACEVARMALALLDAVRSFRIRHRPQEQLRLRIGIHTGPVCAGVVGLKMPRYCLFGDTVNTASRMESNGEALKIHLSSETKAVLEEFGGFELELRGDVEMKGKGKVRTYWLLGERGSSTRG
T1 sequence (P17342 whole entry): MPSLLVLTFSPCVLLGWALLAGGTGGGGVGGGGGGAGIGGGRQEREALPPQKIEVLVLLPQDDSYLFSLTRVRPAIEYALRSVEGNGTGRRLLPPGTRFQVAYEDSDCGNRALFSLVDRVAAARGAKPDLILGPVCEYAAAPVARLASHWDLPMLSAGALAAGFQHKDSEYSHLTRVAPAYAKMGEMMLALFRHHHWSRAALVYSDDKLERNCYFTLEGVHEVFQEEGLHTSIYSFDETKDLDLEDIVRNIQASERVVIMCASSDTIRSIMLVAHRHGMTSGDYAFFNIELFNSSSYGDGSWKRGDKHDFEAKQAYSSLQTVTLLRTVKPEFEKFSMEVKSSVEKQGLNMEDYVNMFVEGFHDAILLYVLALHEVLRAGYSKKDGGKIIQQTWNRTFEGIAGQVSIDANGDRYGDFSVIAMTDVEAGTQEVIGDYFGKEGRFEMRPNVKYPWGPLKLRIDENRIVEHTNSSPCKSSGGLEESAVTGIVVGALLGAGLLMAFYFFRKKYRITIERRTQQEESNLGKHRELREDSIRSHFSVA

[2] = Inhibitory activity against non-guanylate cyclase receptor binding site in rabbit lung by using [125I]-ANP-(103-126); design: species or system Oryctolagus cuniculus
[3] = Ratio of IC50 of guanylate cyclase coupled receptor binding and non-guanylate cyclase coupled binding

Compound	IC50 [1] [nM]	IC50 [2] [nM]	Ratio [3]
CC[C@H](C)[C@H](NC(=O)[C@H](CCCN=C(N)N)NC(=O)[C@H](CC(=O)O)NC(=O)[C@@H](NC(=O)[C@H](CCCN=C(N)N)NC(=O)CNC(=O)CNC(=O)[C@H](Cc1ccccc1)NC(=O)[C@@H](N)CS)[C@@H](C)CC)C(=O)NCC(N)=O (H-CFGGRIDRIG-NH2)	> 100	0.28	> 357
CC[C@H](C)[C@H](NC(=O)[C@H](CCCN=C(N)N)NC(=O)[C@H](CC(=O)O)NC(=O)[C@@H](NC(=O)[C@H](CCCN=C(N)N)NC(=O)CNC(=O)CNC(=O)[C@H](Cc1ccccc1)NC(=O)[C@@H](N)CO)[C@@H](C)CC)C(=O)NCC(=O)N[C@@H](C)C(=O)N[C@@H](CCC(N)=O)C(=O)N[C@@H](CO)C(=O)NCC(=O)N[C@@H](CC(C)C)C(=O)NCC(=O)N[C@@H](CC(N)=O)C(=O)N[C@@H](CO)C(=O)N[C@@H](Cc1ccccc1)C(=O)N[C@@H](CCCN=C(N)N)C(=O)N[C@@H](Cc1ccc(O)cc1)C(=O)O (H-SFGGRIDRIGAQSGLGNSFRY-OH)	> 100	0.35	> 285
CC[C@H](C)[C@H](NC(=O)[C@H](CCCN=C(N)N)NC(=O)[C@H](CC(=O)O)NC(=O)[C@@H](NC(=O)[C@H](CCCN=C(N)N)NC(=O)CNC(C)=O)[C@@H](C)CC)C(=O)NCC(N)=O [GRIDRIG] (Ac-GRIDRIG-NH2)	> 100	65	> 1.5
CC[C@H](C)[C@@H]1NC(=O)[C@H](CCCN=C(N)N)NC(=O)[C@H](CC(=O)O)NC(=O)[C@H]([C@@H](C)CC)NC(=O)[C@H](CCCN=C(N)N)NC(=O)CNC(=O)CNC(=O)[C@H](Cc2ccccc2)NC(=O)[C@@H](NC(=O)[C@H](CO)NC(=O)[C@H](CO)NC(=O)[C@H](CCCN=C(N)N)NC(=O)[C@H](CCCN=C(N)N)NC(=O)[C@H](CC(C)C)NC(=O)[C@@H](N)CO)CSSC[C@@H](C(N)=O)NC(=O)[C@H](CCC(N)=O)NC(=O)[C@H](C)NC(=O)CNC1=O (HELM PEPTIDE1{S.L.R.R.S.S.C.F.G.G.R.I.D.R.I.G.A.Q.C.[am]}$PEPTIDE1,PEPTIDE1,7:R3-19:R3$$$V2.0)	52	0.16	312
CC[C@H](C)[C@@H]1NC(=O)[C@H](CCCN=C(N)N)NC(=O)[C@H](CC(=O)O)NC(=O)[C@H]([C@@H](C)CC)NC(=O)[C@H](CCCN=C(N)N)NC(=O)CNC(=O)[C@@H](NC(=O)[C@H](CO)NC(=O)[C@@H](N)CO)CSSC[C@H](C(=O)N[C@@H](CC(N)=O)C(=O)N[C@@H](CO)C(=O)N[C@@H](Cc2ccccc2)C(=O)N[C@@H](CCCN=C(N)N)C(N)=O)NC(=O)CNC(=O)[C@H](CC(C)C)NC(=O)CNC(=O)[C@H](CO)NC(=O)CNC1=O	> 100	0.1	> 1000
CC(C)C[C@H](NC(=O)[C@@H](N)CO)C(=O)N[C@@H](CCCN=C(N)N)C(=O)N[C@@H](CCCN=C(N)N)C(=O)N[C@@H](CO)C(=O)N[C@@H](CO)C(=O)N[C@@H](CS)C(=O)N[C@@H](Cc1ccccc1)C(=O)NCC(=O)NCC(=O)N[C@@H](CCCN=C(N)N)C(=O)O (H-SLRRSSCFGGR-OH)	> 100	> 100	–
CC[C@H](C)[C@@H]1NC(=O)[C@H](CCCN=C(N)N)NC(=O)[C@H](CC(=O)O)NC(=O)[C@H]([C@@H](C)CC)NC(=O)[C@H](CCCN=C(N)N)NC(=O)CNC(=O)CNC(=O)[C@H](Cc2ccccc2)NC(=O)[C@@H](NC(=O)[C@H](CO)NC(=O)[C@@H](N)CO)CSSC[C@@H](C(=O)N[C@@H](CC(N)=O)C(=O)N[C@@H](CO)C(=O)O)NC(=O)CNC(=O)[C@H](CC(C)C)NC(=O)CNC(=O)[C@H](CO)NC(=O)[C@H](CCC(N)=O)NC(=O)[C@H](C)NC(=O)CNC1=O (HELM PEPTIDE1{S.S.C.F.G.G.R.I.D.R.I.G.A.Q.S.G.L.G.C.N.S}$PEPTIDE1,PEPTIDE1,3:R3-19:R3$$$V2.0)	36	0.78	46
